# Reference: patent publication US8802597B2, “Herbicidal pyrimidines” (E I du Pont de Nemours and Company, priority 2003, dated 2014)
# How the values were obtained:
# Format in all cases: in vivo
# [1] = test system: wild buckwheat (POLCO; Polygonum convolvulus); experiment: Test I mixtures of compound 9 with metsulfuron-methyl and chlorsulfuron-metsulfuron-methyl (5:1); conditions: applied alone
# From the text: (§1) This test evaluated the effect of mixtures of compound 9 with metsulfuron-methyl and with a 5:1 by weight combination of chlorsulfuron and metsulfuron-methyl on several plant species. Seeds of test plants consisting of wheat (TRZAW; Triticum aestivum), wild buckwheat, (POLCO; Polygonum convolvulus), redroot pigweed (AMARE; Amaranthus retroflexus), wild mustard (SINAR; Sinapis arvensis), catchweed bedstraw (GALAP; Galium aparine), Russian thistle (SASKR; Salsola kali), common chickweed (STEME; Stellaria media), kochia (KCHSC; Kochia scoparia), and lambsquarters (CHEAL; Chenopodium album) were planted into a blend of loam soil and sand. Plants were grown in a greenhouse using supplemental lighting to maintain a photoperiod of about 14 hours; daytime and nighttime temperatures were about 23° C. and 16° C., respectively. Balanced fertilizer was applied through the watering system. The plants were grown for 10 to 23 days so that at time of treatment the plants ranged from 2- to 8-leaf stage. Treatments consisted of Compound 9, metsulfuron-methyl, and chlorsulfuron-metsulfuron-methyl (5:1) alone and in combination. The treatments were formulated in a non-phytotoxic solvent mixture which included a surfactant and applied as a foliage spray using a volume of 280-458 L/ha. Each treatment was replicated three times. […] Treated plants and controls were maintained in the greenhouse and watered as needed with care to not wet the foliage for the first 24 hours after treatment. The effects on the plants approximately 17 days after treatment were visually compared to untreated controls. Plant response ratings were calculated as the means of the three replicates, based on a scale of 0 to 100 where 0 is no effect and 100 is complete control. Colby's Equation was used to determine the herbicidal effects expected from the mixtures.
# [2] = test system: wild mustard (SINAR; Sinapis arvensis); experiment: as above; conditions: applied alone
# From the text: as §1
# [3] = test system: common chickweed (STEME; Stellaria media); experiment: as above; conditions: applied alone
# From the text: as §1
# [4] = test system: catchweed bedstraw (GALAP; Galium aparine); experiment: as above; conditions: applied alone
# From the text: as §1
# [5] = test system: Russian thistle (SASKR; Salsola kali); experiment: as above; conditions: applied alone
# From the text: as §1
# [6] = test system: late watergrass (ECOR2; Echinochloa oryzicola); experiment: Test J mixtures of compound 58 with azimsulfuron, flooded paddy; conditions: 21 days, scale 0-100
# From the text: (§2) This test evaluated the effect of mixtures of compound 58 with azimsulfuron on several plant species. Three plastic pots (ca. 16-cm diameter) per rate were partially filled with sterilized Tama silt loam soil comprising a 35:50:15 ratio of sand, silt and clay and 2.6% organic matter. Separate plantings for each of the three pots were as follows. Seeds from the U.S. of ducksalad (HETLI; Heteranthera limosa), smallflower umbrella sedge (CYPDI; Cyperus difformis) and purple redstem (AMMCO; Ammannia coccinea), were planted into one 16-cm pot for each rate. Seeds from the U.S. of bearded sprangletop (LEFUF; Leptochloa fusca ssp. fascicularis), one stand of 9 or 10 water-seeded rice seedlings (ORYSW; Oryza sativa cv. ‘Japonica-M202’), and one stand of 6 transplanted rice seedlings (ORYSP; Oryza sativa cv. ‘Japonica-M202’) were planted into one 16-cm pot for each rate. Seeds from the U.S. of barnyardgrass (ECHCG; Echinochloa crus-galli), late watergrass (ECOR2; Echinochloa oryzicola), early watergrass (ECHOR; Echinochloa oryzoides) and junglerice (ECHCO; Echinochloa colona) were planted into one 16-cm pot for each rate. Plantings were sequential so that crop and weed species were at the 2.0 to 2.5-leaf stage at time of treatment.
# (§3) Potted plants were grown in a greenhouse with day/night temperature settings of 29.5/26.7° C., and supplemental balanced lighting was provided to maintain a 16-hour photoperiod. Test pots were maintained in the greenhouse until test completion.
# (§4) At time of treatment, test pots were flooded to 3 cm above the soil surface and then treated by application directly to the paddy water of test compounds formulated in a non-phytotoxic solvent mixture which included a surfactant. The pots were maintained at the 3-cm water depth for the duration of the test. Treatments consisted of compound 58 and azimsulfuron alone and in combination. Effects of treatments on rice and weeds were visually evaluated by comparison to untreated controls after 21 days. Plant response ratings were calculated as the means of the three replicates and are summarized in Table J. The ratings are based on a scale of 0 to 100 where 0 is no effect and 100 is complete control. A dash (-) response means no test result. Colby's Equation was used to determine the herbicidal effects expected from the mixtures.
# [7] = test system: barnyardgrass (ECHCG; Echinochloa crus-galli); experiment: as above; conditions: 21 days, scale 0-100
# From the text: as §2, §3, §4
# [8] = test system: bearded sprangletop (LEFUF; Leptochloa fusca ssp. fascicularis); experiment: as above; conditions: 21 days, scale 0-100
# From the text: as §2, §3, §4
# [9] = test system: ducksalad (HETLI; Heteranthera limosa); experiment: as above; conditions: 21 days, scale 0-100
# From the text: as §2, §3, §4
# [10] = test system: early watergrass (ECHOR; Echinochloa oryzoides); experiment: as above; conditions: 21 days, scale 0-100
# From the text: as §2, §3, §4
# [11] = test system: junglerice (ECHCO; Echinochloa colona); experiment: as above; conditions: 21 days, scale 0-100
# From the text: as §2, §3, §4
# [12] = test system: transplanted rice seedlings (ORYSP; Oryza sativa cv. ‘Japonica-M202’); experiment: as above; conditions: 21 days, scale 0-100
# From the text: as §2, §3, §4
# [13] = test system: purple redstem (AMMCO; Ammannia coccinea); experiment: as above; conditions: 21 days, scale 0-100
# From the text: as §2, §3, §4
# [14] = test system: smallflower umbrella sedge (CYPDI; Cyperus difformis); experiment: as above; conditions: 21 days, scale 0-100
# From the text: as §2, §3, §4
# [15] = test system: water-seeded rice seedlings (ORYSW; Oryza sativa cv. ‘Japonica-M202’); experiment: as above; conditions: 21 days, scale 0-100
# From the text: as §2, §3, §4
compound,measurement,setting,value
"COC(=O)c1nc(C2CC2)nc(N)c1Cl [Compound 9, methyl 6-amino-5-chloro-2-cyclopropyl-4-pyrimidinecarboxylate]",POLCO Obsd. (observed effect),[1]; 4 g a.i./ha,17
same,POLCO Obsd. (observed effect),[1]; 8 g a.i./ha,27
same,SINAR Obsd. (observed effect),[2]; 4 g a.i./ha,45
same,SINAR Obsd. (observed effect),[2]; 8 g a.i./ha,47
same,STEME Obsd. (observed effect),[3]; 4 g a.i./ha,47
same,STEME Obsd. (observed effect),[3]; 8 g a.i./ha,55
same,GALAP Obsd. (observed effect),[4]; 4 g a.i./ha,83
same,GALAP Obsd. (observed effect),[4]; 8 g a.i./ha,87
same,SASKR Obsd. (observed effect),[5]; 4 g a.i./ha,50
same,SASKR Obsd. (observed effect),[5]; 8 g a.i./ha,73
"COC(=O)c1nc(-c2ccc(Cl)cc2)nc(N)c1Cl [Compound 58, methyl 6-amino-5-chloro-2-(4-chlorophenyl)-4-pyrimidinecarboxylate]",ECOR2 Obsd.,[6]; Compound 58 16 g a.i./ha alone,0
same,ECOR2 Obsd.,[6]; Compound 58 32 g a.i./ha alone,0
same,ECOR2 Obsd.,[6]; Compound 58 64 g a.i./ha alone,0
same,ECHCG Obsd.,[7]; Compound 58 16 g a.i./ha alone,0
same,ECHCG Obsd.,[7]; Compound 58 32 g a.i./ha alone,0
same,ECHCG Obsd.,[7]; Compound 58 64 g a.i./ha alone,0
same,LEFUF Obsd.,[8]; Compound 58 16 g a.i./ha alone,0
same,LEFUF Obsd.,[8]; Compound 58 32 g a.i./ha alone,0
same,LEFUF Obsd.,[8]; Compound 58 64 g a.i./ha alone,20
same,HETLI Obsd.,[9]; Cmpd 58 16 g a.i./ha alone,100
same,HETLI Obsd.,[9]; Cmpd 58 32 g a.i./ha alone,100
same,HETLI Obsd.,[9]; Cmpd 58 64 g a.i./ha alone,100
same,ECHOR Obsd.,[10]; Compound 58 16 g a.i./ha alone,0
same,ECHOR Obsd.,[10]; Compound 58 32 g a.i./ha alone,0
same,ECHOR Obsd.,[10]; Compound 58 64 g a.i./ha alone,0
same,ECHCO Obsd.,[11]; Compound 58 16 g a.i./ha alone,0
same,ECHCO Obsd.,[11]; Compound 58 32 g a.i./ha alone,0
same,ECHCO Obsd.,[11]; Compound 58 64 g a.i./ha alone,0
same,ORYSP Obsd.,[12]; Cmpd 58 16 g a.i./ha alone,0
same,ORYSP Obsd.,[12]; Cmpd 58 32 g a.i./ha alone,0
same,ORYSP Obsd.,[12]; Cmpd 58 64 g a.i./ha alone,0
same,AMMCO Obsd.,[13]; Cmpd 58 16 g a.i./ha alone,0
same,AMMCO Obsd.,[13]; Cmpd 58 32 g a.i./ha alone,30
same,AMMCO Obsd.,[13]; Cmpd 58 64 g a.i./ha alone,90
same,CYPDI Obsd.,[14]; Cmpd 58 16 g a.i./ha alone,100
same,CYPDI Obsd.,[14]; Cmpd 58 32 g a.i./ha alone,100
same,CYPDI Obsd.,[14]; Cmpd 58 64 g a.i./ha alone,100
same,ORYSW Obsd.,[15]; Cmpd 58 16 g a.i./ha alone,10
same,ORYSW Obsd.,[15]; Cmpd 58 32 g a.i./ha alone,10
same,ORYSW Obsd.,[15]; Cmpd 58 64 g a.i./ha alone,20
